Results on nine compounds are retold here after ChEMBL document CHEMBL5257062, “Synthesis, in vitro cytotoxicity evaluation and mechanism of 5' monosubstituted chalcone derivatives as antitumor agents” (Bioorg Med Chem Lett, 2023).

Data set [1] deals with K562. Briefly: Cytotoxicity against human K562 cells by MTT assay. Type of data set: functional, cell-based.
Data set [2] has as its system HepG2. Briefly: Cytotoxicity against human HepG2 cells by MTT assay. It is filed as functional, cell-based.
Data set [3] has as its system HT-29. Briefly: Cytotoxicity against human HT-29 cells by MTT assay. It is filed as functional, cell-based.
The subject of data set [4] is MDA-MB-231. Briefly: Cytotoxicity against human MDA-MB-231 cells. Type of data set: functional, cell-based.
Data set [5] in a line: Cytotoxicity against HEK293T cells. It is filed as toxicity, cell-based, HEK-293T. As to conditions: human.
Data set [6] in a line: Cytotoxicity against HUVEC cells. Type of data set: toxicity, cell-based. Particulars: human.
Data set [7] deals with HCT-116. Description: Cytotoxicity against human HCT-116 cells. Type of data set: functional, cell-based.
Data set [8] concerns K562. Description: Induction of apoptosis in human K562 cells at 2 uM after 12 hrs by annexin V-FITC and PI staining based method (reference value: 8.4%). It is filed as functional.
The test system of data set [9] is K562. Description: Induction of apoptosis in human K562 cells at 20 uM after 12 hrs by annexin V-FITC and PI staining based method (reference value: 8.4%). Type of data set: functional.
In data set [10] the test system is K562. Briefly: Induction of apoptosis in human K562 cells at 2 uM after 24 hrs by annexin V-FITC and PI staining based method (reference value: 9%). It is filed as functional.
Data set [11] relates to K562. Briefly: Induction of apoptosis in human K562 cells at 20 uM after 24 hrs by annexin V-FITC and PI staining based method (reference value: 9%). Type of data set: functional.
The test system of data set [12] is K562. Briefly: Induction of apoptosis in human K562 cells at 2 uM after 48 hrs by annexin V-FITC and PI staining based method (reference value: 9.8%). Type of data set: functional.
Data set [13] relates to K562. Briefly: Induction of apoptosis in human K562 cells at 20 uM after 48 hrs by annexin V-FITC and PI staining based method (reference value: 9.8%). Type of data set: functional.
Data set [14] relates to K562. Description: Induction of apoptosis in human K562 cells assessed as appearance of apoptotic bodies at 2 to 20 uM by light microscopic analysis. Type of data set: functional, cell-based. Particulars: dose 2-20 µM, TDE = time-dependent effect.
Data set [15] deals with K562. Briefly: Induction of apoptosis in human K562 cells assessed as inhibition of cell growth at 2 to 20 uM. It is filed as functional, cell-based. Particulars: dose 2-20 µM, time 12-72 hrs, TDE = time-dependent effect.
The test system of data set [16] is K562. Description: Induction of apoptosis in human K562 cells assessed as inhibition of cell growth after 12 to 72 hrs. Type of data set: functional, cell-based. As to conditions: dose 0.2-20 µM, time 12-72 hrs.
Data set [17] relates to K562. Briefly: Induction of cell cycle arrest in human K562 cells assessed as accumulation of cells at G1 phase at 2 uM incubated for 6 hrs by flow cytometry (reference value: 57.73%). It is filed as functional.
Data set [18] has as its system K562. Description: Induction of cell cycle arrest in human K562 cells assessed as accumulation of cells at G1 phase at 20 uM incubated for 6 hrs by flow cytometry (reference value: 57.73%). It is filed as functional.
Data set [19] concerns K562. Description: Induction of cell cycle arrest in human K562 cells assessed as accumulation of cells at G2 phase at 2 uM incubated for 6 hrs by flow cytometry (reference value: 13.40%). Type of data set: functional.
The subject of data set [20] is K562. Briefly: Induction of cell cycle arrest in human K562 cells assessed as accumulation of cells at G2 phase at 20 uM incubated for 6 hrs by flow cytometry (reference value: 13.40%). It is filed as functional.
Data set [21] concerns K562. Briefly: Induction of cell cycle arrest in human K562 cells assessed as accumulation of cells at S phase at 2 uM incubated for 6 hrs by flow cytometry (reference value: 28.87%). Type of data set: functional.
Data set [22] relates to K562. Description: Induction of cell cycle arrest in human K562 cells assessed as accumulation of cells at S phase at 20 uM incubated for 6 hrs by flow cytometry (reference value: 28.87%). It is filed as functional.
Data set [23] has as its system K562. Briefly: Induction of cell cycle arrest in human K562 cells assessed as accumulation of cells at G1 phase at 2 uM incubated for 12 hrs by flow cytometry (reference value: 71.17%). It is filed as functional.
Data set [24] has as its system K562. Briefly: Induction of cell cycle arrest in human K562 cells assessed as accumulation of cells at G1 phase at 20 uM incubated for 12 hrs by flow cytometry (reference value: 71.17%). Type of data set: functional.
Data set [25] deals with K562. Description: Induction of cell cycle arrest in human K562 cells assessed as accumulation of cells at G2 phase at 2 uM incubated for 12 hrs by flow cytometry (reference value: 11.93%). It is filed as functional.
Data set [26] deals with K562. Briefly: Induction of cell cycle arrest in human K562 cells assessed as accumulation of cells at G2 phase at 20 uM incubated for 12 hrs by flow cytometry (reference value: 11.93%). Type of data set: functional.
In data set [27] the test system is K562. Briefly: Induction of cell cycle arrest in human K562 cells assessed as accumulation of cells at S phase at 2 uM incubated for 12 hrs by flow cytometry (reference value: 16.9%). Type of data set: functional.
The test system of data set [28] is K562. Briefly: Induction of cell cycle arrest in human K562 cells assessed as accumulation of cells at S phase at 20 uM incubated for 12 hrs by flow cytometry (reference value: 16.9%). It is filed as functional.
Data set [29] deals with K562. Description: Induction of cell cycle arrest in human K562 cells assessed as accumulation of cells at G1 phase at 2 uM incubated for 24 hrs by flow cytometry (reference value: 82.22%). Type of data set: functional.
The test system of data set [30] is K562. Description: Induction of cell cycle arrest in human K562 cells assessed as accumulation of cells at G1 phase at 20 uM incubated for 24 hrs by flow cytometry (reference value: 82.22%). Type of data set: functional.
Data set [31] has as its system K562. Briefly: Induction of cell cycle arrest in human K562 cells assessed as accumulation of cells at G2 phase at 2 uM incubated for 24 hrs by flow cytometry (reference value: 0.27%). It is filed as functional.
Data set [32] has as its system K562. Briefly: Induction of cell cycle arrest in human K562 cells assessed as accumulation of cells at G2 phase at 20 uM incubated for 24 hrs by flow cytometry (reference value: 0.27%). It is filed as functional.
Data set [33] has as its system K562. Briefly: Induction of cell cycle arrest in human K562 cells assessed as accumulation of cells at S phase at 2 uM incubated for 24 hrs by flow cytometry (reference value: 17.51%). Type of data set: functional.
Data set [34] relates to K562. Briefly: Induction of cell cycle arrest in human K562 cells assessed as accumulation of cells at S phase at 20 uM incubated for 24 hrs by flow cytometry (reference value: 17.51%). Type of data set: functional.
In data set [35] the test system is HepG2. Briefly: Inhibition of cell migration human HepG2 cells assessed as migration distance at 0.3 uM incubated for 12 hrs by wound healing assay (reference value: 566.76 micrometer). It is filed as functional.
In data set [36] the test system is HepG2. Briefly: Inhibition of cell migration human HepG2 cells assessed as migration distance at 1 uM incubated for 12 hrs by wound healing assay (reference value: 566.76 micrometer). Type of data set: functional.
Data set [37] deals with HepG2. Description: Inhibition of cell migration human HepG2 cells assessed as migration distance at 3 uM incubated for 12 hrs by wound healing assay (reference value: 566.76 micrometer). It is filed as functional.
The subject of data set [38] is HepG2. Briefly: Inhibition of cell migration human HepG2 cells assessed as migration distance at 0.3 uM incubated for 24 hrs by wound healing assay (reference value: 424.41 micrometer). Type of data set: functional.
The test system of data set [39] is HepG2. Description: Inhibition of cell migration human HepG2 cells assessed as migration distance at 1 uM incubated for 24 hrs by wound healing assay (reference value: 424.41 micrometer). Type of data set: functional.
Data set [40] has as its system HepG2. Description: Inhibition of cell migration human HepG2 cells assessed as migration distance at 3 uM incubated for 24 hrs by wound healing assay (reference value: 424.41 micrometer). It is filed as functional.
Data set [41] relates to HepG2. Briefly: Inhibition of cell migration human HepG2 cells assessed as migration distance at 0.3 uM incubated for 36 hrs by wound healing assay (reference value: 243.56 micrometer). It is filed as functional.
The subject of data set [42] is HepG2. Briefly: Inhibition of cell migration human HepG2 cells assessed as migration distance at 1 uM incubated for 36 hrs by wound healing assay (reference value: 243.56 micrometer). Type of data set: functional.
For data set [43], the system named is HepG2. Briefly: Inhibition of cell migration human HepG2 cells assessed as migration distance at 3 uM incubated for 36 hrs by wound healing assay (reference value: 243.56 micrometer). Type of data set: functional.
The subject of data set [44] is HepG2. Description: Inhibition of cell migration human HepG2 cells assessed as migration distance at 0.3 uM incubated for 48 hrs by wound healing assay (reference value: 0 micrometer). Type of data set: functional.
The subject of data set [45] is HepG2. Briefly: Inhibition of cell migration human HepG2 cells assessed as migration distance at 1 uM incubated for 48 hrs by wound healing assay (reference value: 0 micrometer). It is filed as functional.
In data set [46] the test system is HepG2. Description: Inhibition of cell migration human HepG2 cells assessed as migration distance at 3 uM incubated for 48 hrs by wound healing assay (reference value: 0 micrometer). Type of data set: functional.
Data set [47] relates to HepG2. Briefly: Inhibition of cell migration human HepG2 cells at 0.3 to 3 uM incubated for 48 hrs by Transwell assay. It is filed as functional, cell-based. As to conditions: dose 0.3-3 µM.

The source made the active and inactive calls. The calls are words filed in the database; no cut-off is given here.

In the case of `CC[C@@]1(O)C(=O)OCc2c1cc1n(c2=O)Cc2cc3ccccc3nc2-1` [CAMPTOTHECIN], the half-inhibitory concentration (IC50) in [1] was 0.04 µM; in [2] it was 0.02 µM; in [3], 0.07 µM; in [4], above 100 µM; in data set [5] it was 0.03 µM; in data set [6], 0.06 µM.
Take `COc1cc(OC)c(-c2ccc(C(F)(F)F)cc2)cc1C(=O)/C=C/c1ccccc1`: the IC50 in data set [1] is 8.7 µM; in data set [2] it was above 10 µM; in data set [3] it was above 10 µM.
For the compound `COc1cc(OC)c(-c2ccc(C)cc2)cc1C(=O)/C=C/c1ccccc1`, the IC50 in [1] is 2.59 µM; in data set [2] it was above 10 µM; in data set [3], 9.29 µM.
For the compound `COc1cc(OC)c(-c2ccc(OC(C)=O)cc2)cc1C(=O)/C=C/c1ccccc1`, the IC50 in data set [1], in data set [2] and in [3] was above 10 µM in each case.
Turning to `COc1cc(OC)c(-c2ccc(F)cc2)cc1C(=O)/C=C/c1ccccc1`, the 50% inhibitory concentration (IC50) in data set [1] turned out to be 1.97 µM; in data set [2], 2.23 µM; in data set [3], 7.69 µM; in data set [7] it was 5.17 µM; in [4], 10.7 µM; in data set [5] it was 5.19 µM. In addition, in data set [6], the IC50 was determined as 19.7 µM. The Activity in [8] stood at 8.1%; in data set [9] it was 11.9%; in data set [10], 12%; in data set [11], 19.8%; in data set [12], 32%; in [13] it was 62.6%. The Activity result in [14] is “Tde”; in data set [15] it was “Tde”; in [16] it was “Dose-Dependent Effect”; in data set [17] it was 58.77%; in data set [18] it was 60.44%; in data set [19], 11.61%. Besides, the Activity in data set [20] amounted to 9.25%; in data set [21] it was 29.62%; in [22] it was 30.33%; in [23], 58.31%; in data set [24] it was 52.57%; in data set [25], 12.29%. Also, the Activity in data set [26] amounted to 10.88%; in [27] it was 29.39%; in data set [28], 36.55%; in data set [29], 54.29%; in [30], 54.29%; in data set [31] it was 7.97%. The Activity in data set [32] is on record as 1.33%; in data set [33], 37.74%; in data set [34], 44.38%; in data set [35], 532.4 um; in [36] it was 551.11 um; in [37] it was 534.71 um. Besides, the Activity in data set [38] is given as 438 um; in [39] it was 486.95 um; in [40] it was 488.94 um; in data set [41] it was 294.54 um; in [42], 401.52 um; in [43], 423.28 um. The Activity in data set [44] is reported as 245.7 um; in data set [45] it was 301.44 um; in data set [46], 337.11 um. Besides, the inhibition entry in [47] is “Active”.
For `COc1cc(OC)c(-c2ccc(-c3ccco3)cc2)cc1C(=O)/C=C/c1ccccc1`, the values for the IC50 in data set [1], in data set [2] and in data set [3] were 4.69 µM, 5.91 µM and 6.17 µM, respectively.
For `COc1ccc(-c2cc(C(=O)/C=C/c3ccccc3)c(OC)cc2OC)cc1` the same measures were 7.26 µM, above 10 µM and above 10 µM.
For `COc1cc(OC)c(-c2ccccc2)cc1C(=O)/C=C/c1ccccc1` the same measures were 3.83 µM, above 10 µM and 9.17 µM.
With `COc1cc(OC)c(-c2ccc(C#N)cc2)cc1C(=O)/C=C/c1ccccc1`, the IC50 in data set [1], in data set [2] and in data set [3] was above 10 µM in each case.
